Experimental data published in ChEMBL document CHEMBL4806962, “Methods and Compositions for Treating Cancer” (2020).
pEC50: −log10 of the molar value. Calls of active or inactive are those of the source. The rule behind the calls is not given here.

Target: T1, Probable G-protein coupled receptor 174 (Homo sapiens, UniProt Q9BXC1)
Experiment: Antagonist activity at human GPR174 by CRA
Format: functional
Details: not given

T1 sequence (Q9BXC1 whole entry): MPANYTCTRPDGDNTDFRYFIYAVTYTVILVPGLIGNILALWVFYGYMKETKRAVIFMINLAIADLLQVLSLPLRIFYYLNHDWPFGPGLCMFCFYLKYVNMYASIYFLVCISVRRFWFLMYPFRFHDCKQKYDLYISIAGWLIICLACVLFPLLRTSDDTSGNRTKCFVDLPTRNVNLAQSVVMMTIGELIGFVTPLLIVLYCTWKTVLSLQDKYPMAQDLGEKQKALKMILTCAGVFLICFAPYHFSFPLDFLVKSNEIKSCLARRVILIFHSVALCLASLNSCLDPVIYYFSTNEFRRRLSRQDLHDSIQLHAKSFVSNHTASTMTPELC

SMILES	pEC50
Cc1ccccc1Nc1nnc(-c2ccc(C)c(S(N)(=O)=O)c2)c2ccccc12	6.30

Target: T1, Probable G-protein coupled receptor 174
Experiment: Inverse agonist activity at human GPR174 assessed as fold decrease in Gs signalling activity by CRA
Format: functional
Details: filed as inverse agonist

SMILES	fold change (FC)
O=C1CCCC2=C1C(c1ccc(Cl)cc1)C1=C(N2)c2ccccc2C1=O (stereo unspecified)	3
O=[N+]([O-])c1cc(F)c(N2CCCCCC2)cc1N1CCN(S(=O)(=O)c2ccccc2)CC1	1.8
CC(C)c1ccc(C2C3=C(CCCC3=O)NC3=C2C(=O)c2ccccc23)cc1 (stereo unspecified)	1.2
Cc1ccc(S(=O)(=O)N2CCN(c3cc(N4CCCCC4)c(F)cc3[N+](=O)[O-])CC2)cc1	1.7
COc1ccc(C2C3=C(CCCC3=O)NC3=C2C(=O)c2ccccc23)cc1 (stereo unspecified)	1
CCc1ccc(C2C3=C(CCCC3=O)NC3=C2C(=O)c2ccccc23)cc1 (stereo unspecified)	0.5
CCOC(=O)N1CCN(c2cc(N3CCCCC3)c(F)cc2[N+](=O)[O-])CC1	0.3
CCc1ccc(C2C3=C(CCCC3=O)NC3=C2C(=O)c2ccccc23)cn1 (stereo unspecified)	2
CS(=O)(=O)c1ccc(C2C3=C(CCCC3=O)NC3=C2C(=O)c2ccccc23)cc1 (stereo unspecified)	3.3
CC(=O)N1CCN(c2cc(N3CCC(C)CC3)c(F)cc2[N+](=O)[O-])CC1	0.8
O=C1CCCC2=C1C(c1ccc(OCCO)cc1)C1=C(N2)c2ccccc2C1=O (stereo unspecified)	4.4
Cc1ccc(S(=O)(=O)N2CCN(c3cc(N4CCC(C)CC4)c(F)cc3[N+](=O)[O-])CC2)cc1	1.1
CC(C)Oc1ccc(C2C3=C(CCCC3=O)NC3=C2C(=O)c2ccccc23)cc1 (stereo unspecified)	0.6
O=C1CCCC2=C1C(c1ccc(-c3ccccc3)cc1)C1=C(N2)c2ccccc2C1=O (stereo unspecified)	2.5
CCOc1cccc(C2C3=C(CCCC3=O)NC3=C2C(=O)c2ccccc23)c1 (stereo unspecified)	1.6
O=C1CCCC2=C1C(c1ccc(Oc3ccccc3)cc1)C1=C(N2)c2ccccc2C1=O (stereo unspecified)	1
CCOc1ccc(C2C3=C(CCCC3=O)NC3=C2C(=O)c2ccccc23)cc1 (stereo unspecified)	0.4
O=C1CCCC2=C1C(c1ccc(OC3CCCC3)cc1)C1=C(N2)c2ccccc2C1=O (stereo unspecified)	1
C=C(C)COc1ccc(NC(=O)Nc2ccccc2)cc1	0.5
CCOC(=O)N1CCN(c2cc(N3CCCCC3C)c(F)cc2[N+](=O)[O-])CC1 (stereo unspecified)	1

SMILES	fold change (FC)
CCCCCCOc1ccc(C2C3=C(CCCC3=O)NC3=C2C(=O)c2ccccc23)cc1 (stereo unspecified)	0.5
O=C1CCCC2=C1C(c1ccc3c(c1)OCCO3)C1=C(N2)c2ccccc2C1=O (stereo unspecified)	2.6
O=[N+]([O-])c1cc(F)c(N2CCCCC2)cc1N1CCN(S(=O)(=O)c2ccccc2)CC1	0.5
CCCCOc1ccc(C2C3=C(CCCC3=O)NC3=C2C(=O)c2ccccc23)cc1 (stereo unspecified)	1.2
O=C1CCCC2=C1C(c1ccc(OC(F)F)cc1)C1=C(N2)c2ccccc2C1=O (stereo unspecified)	1.2
CC(C)C(=O)N1CCN(c2cc(N3CCCCC3C)c(F)cc2[N+](=O)[O-])CC1 (stereo unspecified)	0.8
CCC(=O)N1CCN(c2cc(N3CCCCC3)c(F)cc2[N+](=O)[O-])CC1	0.5
O=C(c1ccccc1)N1CCN(c2cc(N3CCCCC3)c(F)cc2[N+](=O)[O-])CC1	0.3
O=C1CCCC2=C1C(c1ccc(OC(F)(F)F)cc1)C1=C(N2)c2ccccc2C1=O (stereo unspecified)	1.2
CCC(=O)N1CCN(c2cc(N3CCC(C)CC3)c(F)cc2[N+](=O)[O-])CC1	0.4
CCCC(=O)N1CCN(c2cc(N3CCCCC3)c(F)cc2[N+](=O)[O-])CC1	0.9
CC(C)(C)Oc1ccc(C2C3=C(CCCC3=O)NC3=C2C(=O)c2ccccc23)cc1 (stereo unspecified)	1.3
CC(=O)N1CCN(c2cc(N3CCCCC3)c(F)cc2[N+](=O)[O-])CC1	0.3
C=CCOc1ccc(C2C3=C(CCCC3=O)NC3=C2C(=O)c2ccccc23)cc1 (stereo unspecified)	1.2
O=C1CCCC2=C1C(c1ccc([N+](=O)[O-])cc1)C1=C(N2)c2ccccc2C1=O (stereo unspecified)	2.7
CCOc1ccc(C2C3=C(CCCC3=O)NC3=C2C(=O)c2ccccc23)cn1 (stereo unspecified)	0.6
CCCOc1ccc(C2C3=C(CCCC3=O)NC3=C2C(=O)c2ccccc23)cc1 (stereo unspecified)	1
CCOC(=O)N1CCN(c2cc(N3CCC(C)CC3)c(F)cc2[N+](=O)[O-])CC1	0.4
Cc1nnc(-c2ccc(C3C4=C(CCCC4=O)NC4=C3C(=O)c3ccccc34)cc2)o1 (stereo unspecified)	2.8
CC1CCN(c2cc(N3CCN(C(=O)c4cccs4)CC3)c([N+](=O)[O-])cc2F)CC1	0.4

System: PBMC
Experiment: Effects of compound on IL-2 production in anti-CD3/CD28-stimulated human PBMCs assessed as increase in IL-2 level after 2 days by ELISA
Format: functional, tissue-based
Details: dose 1-10 µM, time 2.0 day

SMILES	Activity
O=C(c1ccccc1)N1CCN(c2cc(N3CCCCC3)c(F)cc2[N+](=O)[O-])CC1	Dose-Dependent Effect

System: Splenocyte
Experiment: Effects of compound on IL-2 production in anti-CD3/CD28-stimulated wild type mouse spleenocytes assessed as fold increase in IL-2 level at 0.3 uM after 2 days in presence of NECA
Format: functional
Details: time 2 day

SMILES	fold change (FC)
O=C(c1ccccc1)N1CCN(c2cc(N3CCCCC3)c(F)cc2[N+](=O)[O-])CC1	1.7

System: Splenocyte
Experiment: Effects of compound on IL-2 production in anti-CD3/CD28-stimulated GPR174 knock out mouse spleenocytes assessed as fold increase in IL-2 level at 0.3 uM after 2 days in presence of NECA
Format: functional, cell-based
Details: time 2.0 day

SMILES	Activity
O=C(c1ccccc1)N1CCN(c2cc(N3CCCCC3)c(F)cc2[N+](=O)[O-])CC1	inactive

System: Splenocyte
Experiment: Effects of compound on IL-2 production in anti-CD3/CD28-stimulated wild type mouse spleenocytes assessed as fold increase in IL-2 level at 0.3 uM after 2 days in presence of […] and NECA
Format: functional
Details: time 2 day

SMILES	fold change (FC)
O=C(c1ccccc1)N1CCN(c2cc(N3CCCCC3)c(F)cc2[N+](=O)[O-])CC1	4.9

System: not listed separately
Experiment: Effects of compound on IL-2 production in anti-CD3/CD28-stimulated human PBMCs assessed as fold increase in IL-2 level at 10 uM after 24 hrs by ELISA
Format: functional, PBMC
Details: not given

SMILES	fold change (FC)
Nc1ncnc2c1ncn2[C@@H]1O[C@H](COP(=O)(O)CP(=O)([O-])O)[C@@H](O)[C@H]1O.[Na+]	1.5
